Values joined by “and” are separate entries in the source; they are usually repeats but may differ in a detail not shown here. Identical values can stand only once. Like-named read-outs stand apart in the source and are kept apart here.
Legend:
229E PL2pro = 229E PL2pro (Human coronavirus 229E, UniProt P0C6X1); assay: biochemical; parameters: inhibition of 229E PL2pro, UbRh dose-response replicate value: unit: %
SARS-CoV PLpro = SARS-CoV PLpro (Severe acute respiratory syndrome coronavirus, UniProt P0C6X7); assay: biochemical; parameters: inhibition of SARS-CoV PLpro, UbRh dose-response replicate value: unit: %
SARS-CoV-2 PLpro [1] = molecular target: T1, SARS-CoV-2 PLpro (Severe acute respiratory syndrome coronavirus 2, UniProt P0DTD1); assay: cell-based; type: cell-based
MERS-CoV PLpro = MERS-CoV PLpro (Middle East respiratory syndrome-related coronavirus, UniProt K9N7C7); type: biochemical; parameters: unit: %
SARS-CoV-2 PLpro [2] = molecular target: T1, SARS-CoV-2 PLpro; assay: biochemical; type: binding
SARS-CoV-2 PLpro [3] = molecular target: T1, SARS-CoV-2 PLpro; assay: biochemical; parameters: inhibition of SARS-CoV-2 PLpro, UbRh dose-response replicate value: unit: %

MERS-CoV PLpro, sequence (K9N7C7 1482-1803 limits assumed): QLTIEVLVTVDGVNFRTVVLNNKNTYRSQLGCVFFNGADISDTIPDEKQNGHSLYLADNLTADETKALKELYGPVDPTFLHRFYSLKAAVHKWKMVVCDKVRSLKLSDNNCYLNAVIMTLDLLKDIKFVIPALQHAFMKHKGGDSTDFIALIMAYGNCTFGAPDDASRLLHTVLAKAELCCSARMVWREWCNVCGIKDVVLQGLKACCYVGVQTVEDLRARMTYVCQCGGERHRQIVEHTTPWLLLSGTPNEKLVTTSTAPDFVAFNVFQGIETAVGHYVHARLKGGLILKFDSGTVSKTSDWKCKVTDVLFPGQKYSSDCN
229E PL2pro, sequence (P0C6X1 1599-1905 limits assumed): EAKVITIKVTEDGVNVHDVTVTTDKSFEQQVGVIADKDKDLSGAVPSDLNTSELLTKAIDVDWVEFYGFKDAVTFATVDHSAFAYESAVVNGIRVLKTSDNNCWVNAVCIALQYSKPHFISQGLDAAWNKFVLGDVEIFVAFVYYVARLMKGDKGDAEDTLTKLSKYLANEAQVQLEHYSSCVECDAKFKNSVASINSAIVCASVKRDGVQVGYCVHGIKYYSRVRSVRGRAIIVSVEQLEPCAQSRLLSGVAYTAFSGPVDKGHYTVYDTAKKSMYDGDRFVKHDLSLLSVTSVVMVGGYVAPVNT

CO/N=C(/c1ccc2cc(OC)ccc2c1)[C@@H]1CCCN([C@H]2CC[C@@H](O)CC2)C1 [WEHI-P4]
inhibition of 229E PL2pro, UbRh dose-response replicate value (229E PL2pro): -3.299 and -1.103 and -1.357 and -1.684 and -5 and -3.221 and 0.1898 and -0.4439 and 15.3408 and -2.102 and -1.619 and -0.7174 and -1.603 and -0.8771 and -3.61 and -1.122 and -1.443 and -0.5265 and -4.511 and -0.9697
inhibition of 229E PL2pro, UbRh dose-response replicate value (229E PL2pro; Conc 0.00498 µM): -2.024 and 3.205 and 24.2526 and 1.229
inhibition of 229E PL2pro, UbRh dose-response replicate value (229E PL2pro; Conc 0.0149 µM): -0.08917 and 0.9383 and 15.3791 and -0.8809
inhibition of 229E PL2pro, UbRh dose-response replicate value (229E PL2pro; Conc 0.0448 µM): -0.8342 and -1.338 and 5.491 and -0.5647
inhibition of 229E PL2pro, UbRh dose-response replicate value (229E PL2pro; Conc 3.63 µM): -3.66 and -1.559 and -7.103 and -2.2201
inhibition of 229E PL2pro, UbRh dose-response replicate value (229E PL2pro; Conc 98 µM): 0.4544 and 1.371 and 3.91 and 5.222
IC50 (SARS-CoV PLpro): 22 nM
inhibition of SARS-CoV PLpro, UbRh dose-response replicate value (SARS-CoV PLpro): 99.5179 and 99.8695 and 99.888 and 100.41 and 101.206 and 100.652 and 97.9154 and 99.4293 and 98.8906 and 95.7801 and 96.2197 and 96.0782 and 88.7276 and 90.1243 and 89.7578
inhibition of SARS-CoV PLpro, UbRh dose-response replicate value (SARS-CoV PLpro; Conc 0.00498 µM): 14.7599 and 17.411 and 20.7686
inhibition at 0.00498 µM (SARS-CoV PLpro; Conc 0.00498 µM, read-out: inhibition of SARS-CoV PLpro, UbRh dose-response replicate value): 16.2%
inhibition of SARS-CoV PLpro, UbRh dose-response replicate value (SARS-CoV PLpro; Conc 0.0149 µM): 37.3989 and 38.0308 and 36.4129
inhibition at 0.0149 µM (SARS-CoV PLpro; Conc 0.0149 µM, read-out: inhibition of SARS-CoV PLpro, UbRh dose-response replicate value): 35.6%
inhibition of SARS-CoV PLpro, UbRh dose-response replicate value (SARS-CoV PLpro; Conc 0.0448 µM): 69.6451 and 70.3349 and 71.2781
inhibition at 0.0448 µM (SARS-CoV PLpro; Conc 0.0448 µM, read-out: inhibition of SARS-CoV PLpro, UbRh dose-response replicate value): 67.2%
inhibition of SARS-CoV PLpro, UbRh dose-response replicate value (SARS-CoV PLpro; Conc 3.63 µM): 99.5331 and 99.9857 and 99.4982
inhibition at 3.63 µM (SARS-CoV PLpro; Conc 3.63 µM, read-out: inhibition of SARS-CoV PLpro, UbRh dose-response replicate value): 99.4%
inhibition of SARS-CoV PLpro, UbRh dose-response replicate value (SARS-CoV PLpro; Conc 98 µM): 99.3819 and 99.8238 and 100.106
inhibition at 98 µM (SARS-CoV PLpro; Conc 98 µM, read-out: inhibition of SARS-CoV PLpro, UbRh dose-response replicate value): 99.7%
inhibition at […] (SARS-CoV PLpro; read-out: inhibition of SARS-CoV PLpro, UbRh dose-response replicate value): 100% (2×) and 98.8% and 95.9% and 88.8%
EC50 (SARS-CoV-2 PLpro [1]): 310 nM
inhibition of MERS-CoV PLpro, UbRh dose-response replicate value (MERS-CoV PLpro): -2.626 and 0.2924 and -2.097 and -1.6716 and -0.7294 and -2.565 and -2.287 and 0.1452 and -3.504 and -2.889 and 1.578 and -2.541 and -3.292 and -3.12 and -0.8701 and -1.654 and -2.848 and 0.1888 and -1.626
inhibition of MERS-CoV PLpro, UbRh dose-response replicate value (MERS-CoV PLpro; Conc 0.00498 µM): 2.537 and 1.088 and 4.818 and -0.3578
inhibition of MERS-CoV PLpro, UbRh dose-response replicate value (MERS-CoV PLpro; Conc 0.0149 µM): 0.4714 and 1.45 and -3.026 and -3.057
inhibition of MERS-CoV PLpro, UbRh dose-response replicate value (MERS-CoV PLpro; Conc 0.0448 µM): 0.04351 and -1.536 and 0.7971 and -3.294
inhibition of MERS-CoV PLpro, UbRh dose-response replicate value (MERS-CoV PLpro; Conc 3.63 µM): -1.9557 and -1.916 and -5.199 and -5.618
inhibition of MERS-CoV PLpro, UbRh dose-response replicate value (MERS-CoV PLpro; Conc 98 µM): -3.229 and -4.988 and -1.6159 and -4.525
Kd (SARS-CoV-2 PLpro [2]): 18 nM
Response (RU), report points (SARS-CoV-2 PLpro [2]): 23.5521 RU and 19.8909 RU and 21.8514 RU and 23.0991 RU and 23.6093 RU and 23.8360 RU
inhibition of SARS-CoV-2 PLpro, UbRh dose-response replicate value (SARS-CoV-2 PLpro [3]; Conc 0.000249 µM): -6.989 and -6.2311 and -15.3901 and -12.0234 and -3.121 and 2.182 and 11.6978 and 1.819
inhibition of SARS-CoV-2 PLpro, UbRh dose-response replicate value (SARS-CoV-2 PLpro [3]; Conc 0.000745 µM): -5.473 and -5.949 and -17.0454 and -10.682
inhibition of SARS-CoV-2 PLpro, UbRh dose-response replicate value (SARS-CoV-2 PLpro [3]; Conc 0.000747 µM): 12.1399 and 17.4092 and 12.0617
inhibition at 0.000747 µM (SARS-CoV-2 PLpro [3]; Conc 0.000747 µM, read-out: inhibition of SARS-CoV-2 PLpro, UbRh dose-response replicate value): 8.73%
inhibition of SARS-CoV-2 PLpro, UbRh dose-response replicate value (SARS-CoV-2 PLpro [3]; Conc 0.00498 µM): -1.775 and 0.6518 and -0.6615 and -14.6544
inhibition of SARS-CoV-2 PLpro, UbRh dose-response replicate value (SARS-CoV-2 PLpro [3]; Conc 0.00675 µM): 22.4234 and 17.1978 and 22.0771
inhibition at 0.00675 µM (SARS-CoV-2 PLpro [3]; Conc 0.00675 µM, read-out: inhibition of SARS-CoV-2 PLpro, UbRh dose-response replicate value): 23.8%
inhibition of SARS-CoV-2 PLpro, UbRh dose-response replicate value (SARS-CoV-2 PLpro [3]; Conc 0.0149 µM): 22.1269 and 15.6043 and 12.3348
inhibition at 0.0149 µM (SARS-CoV-2 PLpro [3]; Conc 0.0149 µM, read-out: inhibition of SARS-CoV-2 PLpro, UbRh dose-response replicate value): 20.2%
inhibition of SARS-CoV-2 PLpro, UbRh dose-response replicate value (SARS-CoV-2 PLpro [3]; Conc 0.0448 µM): 70.4961 and 67.8098 and 82.9795
inhibition at 0.0448 µM (SARS-CoV-2 PLpro [3]; Conc 0.0448 µM, read-out: inhibition of SARS-CoV-2 PLpro, UbRh dose-response replicate value): 69.6%
inhibition of SARS-CoV-2 PLpro, UbRh dose-response replicate value (SARS-CoV-2 PLpro [3]; Conc 0.545 µM): 96.1218 and 96.9708 and 96.4204 and 99.1563 and 99.6768 and 97.5259 and 100.026
inhibition at 0.545 µM (SARS-CoV-2 PLpro [3]; Conc 0.545 µM, read-out: inhibition of SARS-CoV-2 PLpro, UbRh dose-response replicate value): 94.8%
inhibition of SARS-CoV-2 PLpro, UbRh dose-response replicate value (SARS-CoV-2 PLpro [3]; Conc 1.63 µM): 99.7919 and 99.9266 and 100.674

— paper PMC11969009 (Nature Communications, 2025)
